Test results: patent publication US10253039B2, “Inhibitors of bacterial DNA gyrase with efficacy against gram-negative bacteria” (priority 2014, dated 2019)
Values after ≈ are worked out from the molar mass of the structure shown.

Test system: E. coli BW25113
Assay: MIC, microdilution in 96-well plates
Assay type: cell-based
Conditions: Escherichia coli, BW25113, B: E. coli BW25113
Procedure: (§1) A microdilution method in 96-well plates was used and the MIC protocol established by the Clinical Laboratory Standards Institute was followed. From a growing subculture, a 1:10000 inoculum of each strain in Luria-Bertani media was prepared and aliquoted 100 μL in 4 columns of wells, except for the top row wells, which contained 200 μL of inoculum. A solution of gyramide C2 was aliquoted into 3 of the wells containing 200 μL and DMSO was added to the 4th well. The liquid in each of wells was mixed with a multi-channel pipet and 100 μL was transferred to the next well and mixed. The 2-fold dilution was continued down the 96-well plate until 100 μL was left, which was discarded. The plates were incubated at 37° C. with shaking for 16-18 hours. The MIC was determined as the lowest concentration that inhibited growth and had no turbidity by visual inspection.
(§2) Minimum inhibitory concentrations of various gyramide compounds against 20 strains of bacteria were determined using the procedure described above.

| Structure (SMILES) | MIC [µg/mL] |
| --- | --- |
| N#Cc1ccc(Cl)c(S(=O)(=O)N[C@@H]2CCN(Cc3ccc(-c4ccccc4)cc3)C2)c1 [Compound 11] | ~8 (≈ 17.7 µM) |

Same assay, conditions: Escherichia coli, BW25113, B: E. coli BW25113; read-out: MIC

| Structure (SMILES) | MIC [µg/mL] |
| --- | --- |
| COc1ccc(-c2ccc(CN3CC[C@@H](NS(=O)(=O)c4cccc(C#N)c4)C3)cc2)cc1 [Compound 80] | > 8 |
| O=S(=O)(N[C@@H]1CCN(Cc2ccc(OC3CC3)cc2)C1)c1cc(C(F)(F)F)cc(C(F)(F)F)c1 [Compound 128] | > 8 |
| CC(=O)c1cc(S(=O)(=O)N[C@@H]2CCN(Cc3ccc(OC(C)C)cc3)C2)ccc1C [Compound 1] | > 8 |
| N#Cc1cccc(S(=O)(=O)N[C@@H]2CCN(Cc3nc(-c4ccccc4)cs3)C2)c1 [Compound 34] | > 8 |

Test system: Edwardsiella tarda
Assay: MIC, microdilution in 96-well plates
Assay type: cell-based
Conditions: D: Edwardsiella tarda
Procedure: as §1, §2

| Structure (SMILES) | MIC [µg/mL] |
| --- | --- |
| COc1ccc(-c2ccc(CN3CC[C@@H](NS(=O)(=O)c4cccc(C#N)c4)C3)cc2)cc1 [Compound 80] | > 8 |
| O=S(=O)(N[C@@H]1CCN(Cc2ccc(OC3CC3)cc2)C1)c1cc(C(F)(F)F)cc(C(F)(F)F)c1 [Compound 128] | > 8 |
| CC(=O)c1cc(S(=O)(=O)N[C@@H]2CCN(Cc3ccc(OC(C)C)cc3)C2)ccc1C [Compound 1] | > 8 |
| N#Cc1cccc(S(=O)(=O)N[C@@H]2CCN(Cc3nc(-c4ccccc4)cs3)C2)c1 [Compound 34] | > 8 |
| N#Cc1ccc(Cl)c(S(=O)(=O)N[C@@H]2CCN(Cc3ccc(-c4ccccc4)cc3)C2)c1 [Compound 11] | > 8 |

Test system: Staphylococcus aureus subsp. aureus
Assay: MIC, 20-strain panel
Assay type: cell-based
Conditions: H: Staphylococcus aureus subsp. aureus
Procedure: as §1, §2

| Structure (SMILES) | MIC [µg/mL] |
| --- | --- |
| N#Cc1ccc(Cl)c(S(=O)(=O)N[C@@H]2CCN(Cc3ccc(-c4ccccc4)cc3)C2)c1 [Compound 11] | > 8 |

Same assay, conditions: H: Staphylococcus aureus subsp. aureus, read-out: MIC

| Structure (SMILES) | MIC [µg/mL] |
| --- | --- |
| COc1ccc(-c2ccc(CN3CC[C@@H](NS(=O)(=O)c4cccc(C#N)c4)C3)cc2)cc1 [Compound 80] | > 8 |
| O=S(=O)(N[C@@H]1CCN(Cc2ccc(OC3CC3)cc2)C1)c1cc(C(F)(F)F)cc(C(F)(F)F)c1 [Compound 128] | > 8 |
| CC(=O)c1cc(S(=O)(=O)N[C@@H]2CCN(Cc3ccc(OC(C)C)cc3)C2)ccc1C [Compound 1] | > 8 |
| N#Cc1cccc(S(=O)(=O)N[C@@H]2CCN(Cc3nc(-c4ccccc4)cs3)C2)c1 [Compound 34] | > 8 |

Test system: Streptococcus pyogenes
Assay: MIC, 20-strain panel
Assay type: cell-based
Conditions: not given
Procedure: as §1, §2

| Structure (SMILES) | MIC [µg/mL] |
| --- | --- |
| COc1ccc(-c2ccc(CN3CC[C@@H](NS(=O)(=O)c4cccc(C#N)c4)C3)cc2)cc1 [Compound 80] | > 8 |
| O=S(=O)(N[C@@H]1CCN(Cc2ccc(OC3CC3)cc2)C1)c1cc(C(F)(F)F)cc(C(F)(F)F)c1 [Compound 128] | > 8 |
| CC(=O)c1cc(S(=O)(=O)N[C@@H]2CCN(Cc3ccc(OC(C)C)cc3)C2)ccc1C [Compound 1] | > 8 |
| N#Cc1cccc(S(=O)(=O)N[C@@H]2CCN(Cc3nc(-c4ccccc4)cs3)C2)c1 [Compound 34] | > 8 |
| N#Cc1ccc(Cl)c(S(=O)(=O)N[C@@H]2CCN(Cc3ccc(-c4ccccc4)cc3)C2)c1 [Compound 11] | > 8 |

Test system: Staphylococcus epidermidis
Assay: MIC, 20-strain panel
Assay type: cell-based
Conditions: not given
Procedure: as §1, §2

| Structure (SMILES) | MIC [µg/mL] |
| --- | --- |
| COc1ccc(-c2ccc(CN3CC[C@@H](NS(=O)(=O)c4cccc(C#N)c4)C3)cc2)cc1 [Compound 80] | > 8 |
| O=S(=O)(N[C@@H]1CCN(Cc2ccc(OC3CC3)cc2)C1)c1cc(C(F)(F)F)cc(C(F)(F)F)c1 [Compound 128] | > 8 |
| CC(=O)c1cc(S(=O)(=O)N[C@@H]2CCN(Cc3ccc(OC(C)C)cc3)C2)ccc1C [Compound 1] | > 8 |
| N#Cc1cccc(S(=O)(=O)N[C@@H]2CCN(Cc3nc(-c4ccccc4)cs3)C2)c1 [Compound 34] | > 8 |
| N#Cc1ccc(Cl)c(S(=O)(=O)N[C@@H]2CCN(Cc3ccc(-c4ccccc4)cc3)C2)c1 [Compound 11] | > 8 |

Test system: Staphylococcus saprophyticus subsp. saprophyticus
Assay: MIC, 20-strain panel
Assay type: cell-based
Conditions: not given
Procedure: as §1, §2

| Structure (SMILES) | MIC [µg/mL] |
| --- | --- |
| COc1ccc(-c2ccc(CN3CC[C@@H](NS(=O)(=O)c4cccc(C#N)c4)C3)cc2)cc1 [Compound 80] | > 8 |
| O=S(=O)(N[C@@H]1CCN(Cc2ccc(OC3CC3)cc2)C1)c1cc(C(F)(F)F)cc(C(F)(F)F)c1 [Compound 128] | > 8 |
| CC(=O)c1cc(S(=O)(=O)N[C@@H]2CCN(Cc3ccc(OC(C)C)cc3)C2)ccc1C [Compound 1] | > 8 |
| N#Cc1cccc(S(=O)(=O)N[C@@H]2CCN(Cc3nc(-c4ccccc4)cs3)C2)c1 [Compound 34] | > 8 |
| N#Cc1ccc(Cl)c(S(=O)(=O)N[C@@H]2CCN(Cc3ccc(-c4ccccc4)cc3)C2)c1 [Compound 11] | > 8 |

Test system: Shigella flexneri
Assay: MIC, 20-strain panel
Assay type: cell-based
Conditions: G: Shigella flexneri
Procedure: as §1, §2

| Structure (SMILES) | MIC [µg/mL] |
| --- | --- |
| COc1ccc(-c2ccc(CN3CC[C@@H](NS(=O)(=O)c4cccc(C#N)c4)C3)cc2)cc1 [Compound 80] | > 8 |
| O=S(=O)(N[C@@H]1CCN(Cc2ccc(OC3CC3)cc2)C1)c1cc(C(F)(F)F)cc(C(F)(F)F)c1 [Compound 128] | > 8 |
| CC(=O)c1cc(S(=O)(=O)N[C@@H]2CCN(Cc3ccc(OC(C)C)cc3)C2)ccc1C [Compound 1] | > 8 |
| N#Cc1cccc(S(=O)(=O)N[C@@H]2CCN(Cc3nc(-c4ccccc4)cs3)C2)c1 [Compound 34] | > 8 |
| N#Cc1ccc(Cl)c(S(=O)(=O)N[C@@H]2CCN(Cc3ccc(-c4ccccc4)cc3)C2)c1 [Compound 11] | > 8 |

Test system: Streptococcus agalactiae
Assay: MIC, 20-strain panel
Assay type: cell-based
Conditions: not given
Procedure: as §1, §2

| Structure (SMILES) | MIC [µg/mL] |
| --- | --- |
| COc1ccc(-c2ccc(CN3CC[C@@H](NS(=O)(=O)c4cccc(C#N)c4)C3)cc2)cc1 [Compound 80] | > 8 |
| O=S(=O)(N[C@@H]1CCN(Cc2ccc(OC3CC3)cc2)C1)c1cc(C(F)(F)F)cc(C(F)(F)F)c1 [Compound 128] | > 8 |
| CC(=O)c1cc(S(=O)(=O)N[C@@H]2CCN(Cc3ccc(OC(C)C)cc3)C2)ccc1C [Compound 1] | > 8 |
| N#Cc1cccc(S(=O)(=O)N[C@@H]2CCN(Cc3nc(-c4ccccc4)cs3)C2)c1 [Compound 34] | > 8 |
| N#Cc1ccc(Cl)c(S(=O)(=O)N[C@@H]2CCN(Cc3ccc(-c4ccccc4)cc3)C2)c1 [Compound 11] | > 8 |

Test system: Klebsiella pneumoniae subsp. pneumoniae
Assay: MIC, 20-strain panel
Assay type: cell-based
Conditions: E: Klebsiella pneumoniae subsp. pneumoniae
Procedure: as §1, §2

| Structure (SMILES) | MIC [µg/mL] |
| --- | --- |
| COc1ccc(-c2ccc(CN3CC[C@@H](NS(=O)(=O)c4cccc(C#N)c4)C3)cc2)cc1 [Compound 80] | > 8 |
| O=S(=O)(N[C@@H]1CCN(Cc2ccc(OC3CC3)cc2)C1)c1cc(C(F)(F)F)cc(C(F)(F)F)c1 [Compound 128] | > 8 |
| CC(=O)c1cc(S(=O)(=O)N[C@@H]2CCN(Cc3ccc(OC(C)C)cc3)C2)ccc1C [Compound 1] | > 8 |
| N#Cc1cccc(S(=O)(=O)N[C@@H]2CCN(Cc3nc(-c4ccccc4)cs3)C2)c1 [Compound 34] | > 8 |
| N#Cc1ccc(Cl)c(S(=O)(=O)N[C@@H]2CCN(Cc3ccc(-c4ccccc4)cc3)C2)c1 [Compound 11] | > 8 |

Test system: E. coli JW5503 (deltolC)
Assay: MIC, 20-strain panel
Assay type: cell-based
Conditions: Escherichia coli, C: E. coli JW5503 (deltolC)
Procedure: as §1, §2

| Structure (SMILES) | MIC [µg/mL] |
| --- | --- |
| COc1ccc(-c2ccc(CN3CC[C@@H](NS(=O)(=O)c4cccc(C#N)c4)C3)cc2)cc1 [Compound 80] | > 8 |
| O=S(=O)(N[C@@H]1CCN(Cc2ccc(OC3CC3)cc2)C1)c1cc(C(F)(F)F)cc(C(F)(F)F)c1 [Compound 128] | 8 (≈ 15.7 µM) |
| CC(=O)c1cc(S(=O)(=O)N[C@@H]2CCN(Cc3ccc(OC(C)C)cc3)C2)ccc1C [Compound 1] | > 8 |
| N#Cc1cccc(S(=O)(=O)N[C@@H]2CCN(Cc3nc(-c4ccccc4)cs3)C2)c1 [Compound 34] | > 8 |
| N#Cc1ccc(Cl)c(S(=O)(=O)N[C@@H]2CCN(Cc3ccc(-c4ccccc4)cc3)C2)c1 [Compound 11] | < 0.062 |

Test system: Salmonella enterica subsp. enterica typhimurium
Assay: MIC, 20-strain panel
Assay type: cell-based
Conditions: F: Salmonella enterica subsp. enterica Typhimurium
Procedure: as §1, §2

| Structure (SMILES) | MIC [µg/mL] |
| --- | --- |
| COc1ccc(-c2ccc(CN3CC[C@@H](NS(=O)(=O)c4cccc(C#N)c4)C3)cc2)cc1 [Compound 80] | > 8 |
| O=S(=O)(N[C@@H]1CCN(Cc2ccc(OC3CC3)cc2)C1)c1cc(C(F)(F)F)cc(C(F)(F)F)c1 [Compound 128] | > 8 |
| CC(=O)c1cc(S(=O)(=O)N[C@@H]2CCN(Cc3ccc(OC(C)C)cc3)C2)ccc1C [Compound 1] | > 8 |
| N#Cc1cccc(S(=O)(=O)N[C@@H]2CCN(Cc3nc(-c4ccccc4)cs3)C2)c1 [Compound 34] | > 8 |
| N#Cc1ccc(Cl)c(S(=O)(=O)N[C@@H]2CCN(Cc3ccc(-c4ccccc4)cc3)C2)c1 [Compound 11] | 4 (≈ 8.85 µM) |

Test system: E. coli MG1655
Assay: MIC, 20-strain panel
Assay type: cell-based
Conditions: Escherichia coli, MG1655, A: E. coli MG1655
Procedure: as §1, §2

| Structure (SMILES) | MIC [µg/mL] |
| --- | --- |
| N#Cc1ccc(Cl)c(S(=O)(=O)N[C@@H]2CCN(Cc3ccc(-c4ccccc4)cc3)C2)c1 [Compound 11] | > 8 |

Same assay, conditions: Escherichia coli, MG1655, A: E. coli MG1655; read-out: MIC

| Structure (SMILES) | MIC [µg/mL] |
| --- | --- |
| COc1ccc(-c2ccc(CN3CC[C@@H](NS(=O)(=O)c4cccc(C#N)c4)C3)cc2)cc1 [Compound 80] | > 8 |
| O=S(=O)(N[C@@H]1CCN(Cc2ccc(OC3CC3)cc2)C1)c1cc(C(F)(F)F)cc(C(F)(F)F)c1 [Compound 128] | > 8 |
| CC(=O)c1cc(S(=O)(=O)N[C@@H]2CCN(Cc3ccc(OC(C)C)cc3)C2)ccc1C [Compound 1] | > 8 |
| N#Cc1cccc(S(=O)(=O)N[C@@H]2CCN(Cc3nc(-c4ccccc4)cs3)C2)c1 [Compound 34] | > 8 |
